In patent US20240116985A1, “STAPLED PEPTIDES AND METHODS THEREOF” (priority 2020, published 2024):
Where two headings read alike, the source gives them in different places.

Biological target: T1, full-length beta-Catenin (Uniprot ID P35222) (Homo sapiens, UniProt P35222)
T1 construct: 10 nM full-length beta-Catenin (Uniprot ID P35222)
T1 sequence (P35222 1-781): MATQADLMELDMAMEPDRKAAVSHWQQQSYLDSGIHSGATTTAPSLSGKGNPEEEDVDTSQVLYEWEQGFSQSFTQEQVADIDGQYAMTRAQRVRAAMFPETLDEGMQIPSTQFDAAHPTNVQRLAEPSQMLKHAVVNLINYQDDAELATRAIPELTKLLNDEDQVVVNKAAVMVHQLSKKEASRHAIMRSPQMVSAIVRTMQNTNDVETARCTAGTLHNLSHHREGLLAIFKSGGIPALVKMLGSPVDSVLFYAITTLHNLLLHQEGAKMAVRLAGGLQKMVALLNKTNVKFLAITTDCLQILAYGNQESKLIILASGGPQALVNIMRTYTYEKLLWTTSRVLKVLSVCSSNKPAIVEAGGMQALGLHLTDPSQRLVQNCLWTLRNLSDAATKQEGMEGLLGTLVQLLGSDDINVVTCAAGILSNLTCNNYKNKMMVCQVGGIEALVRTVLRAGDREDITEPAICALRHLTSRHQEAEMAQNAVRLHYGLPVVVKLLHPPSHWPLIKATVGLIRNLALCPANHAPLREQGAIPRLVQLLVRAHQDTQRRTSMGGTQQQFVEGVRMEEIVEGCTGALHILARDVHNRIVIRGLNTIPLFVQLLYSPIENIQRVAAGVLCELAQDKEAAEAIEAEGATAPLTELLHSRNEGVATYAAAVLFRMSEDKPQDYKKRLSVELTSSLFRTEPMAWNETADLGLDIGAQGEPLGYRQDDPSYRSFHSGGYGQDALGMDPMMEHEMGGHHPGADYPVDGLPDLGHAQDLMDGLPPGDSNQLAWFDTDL
Test: Fluorescence polarization IC50 (beta-catenin / 5FAM-TCF4 10-53 competition)
Type: binding
Details: fluorescence polarization

| Structure (SMILES) | IC50 (read-out: beta-Catenin FP IC50) [nM] | IC50 (beta-catenin, read-out: FP EC50) [nM] | IC50 (beta-Catenin FP IC50 (nM)) [nM] |
| --- | --- | --- | --- |
| CCOC(=O)C[C@@H]1NC(=O)[C@]2(CC=CCCCC3(CCCC=CCCCOC(=O)N4CC[C@@](C(=O)N[C@@H](Cc5ccsc5)C(=O)N[C@@H](Cc5csc6ccccc56)C(=O)N[C@@H](CCC(N)=O)C(N)=O)(C4)NC(=O)[C@H](CC(C)C)NC(=O)[C@H](Cc4ccccc4)NC(=O)[C@H](C)NC(=O)[C@H](C)NC(=O)[C@H](CC(=O)O)NC(=O)[C@H](CC(=O)O)NC3=O)NC(=O)[C@H](CC(C)(C)C)NC1=O)CCCN2C(C)=O (stereo partly drawn) [I-2356, Ac-PL3-[Et]AspE-Npg-B5-Asp-Asp-Ala-Ala-Phe-Leu-PyrS2-3Thi-BztA-Gln-NH2] | 5270 | – | – |
| CC(=O)N1CCC[C@]12CCCCCCC1(CCCCCCCCOC(=O)N3CC[C@@](C(=O)N[C@@H](Cc4ccsc4)C(=O)N[C@@H](Cc4csc5ccccc45)C(=O)N[C@@H](Cc4ccccc4C(N)=O)C(N)=O)(C3)NC(=O)[C@H](CC(C)C)NC(=O)[C@H](Cc3ccccc3)NC(=O)[C@H](C)NC(=O)[C@H](C)NC(=O)[C@H](CN(CC(=O)O)CC(F)(F)F)NC(=O)[C@H](CC(=O)O)NC1=O)NC(=O)[C@H](CC(C)(C)C)NC(=O)[C@H](CC(=O)O)NC2=O (stereo partly drawn) [I-1717, Ac-PL3-Asp-Npg-B5-Asp-TfeGA-Ala-Ala-Phe-Leu-PyrS2-3Thi-BztA-2cbmf-NH2] | 249 | – | – |
| CC(=O)N1CCC[C@]12CC=CCCCC1(CCCC=CCCCCCC[C@@](C)(C(=O)N[C@@H](Cc3ccsc3)C(=O)N[C@@H](Cc3csc4ccccc34)C(=O)N[C@@H](CCC(N)=O)C(N)=O)NC(=O)[C@H](CC(N)=O)NC(=O)[C@H](Cc3ccccc3)NC(=O)[C@H](C)NC(=O)[C@H](C)NC(=O)[C@H](CN(CC(=O)O)C(C)C)NC(=O)[C@H](CC(=O)O)NC1=O)NC(=O)[C@H](CC(C)(C)C)NC(=O)[C@H](CC(=O)O)NC2=O (stereo partly drawn) [I-1452, Ac-PL3-Asp-Npg-B5-Asp-[iPr]GA-Ala-Ala-Phe-Asn-S8-3Thi-BztA-Gln-NH2] | 66 | 66 | – |
| CC(=O)N1CCC[C@]12CC=CCCCC1(CCCC=CCCCOC(=O)N3CC[C@@](C(=O)N[C@@H](Cc4ccsc4)C(=O)N[C@@H](Cc4csc5ccccc45)C(=O)N[C@@H](CCC(N)=O)C(N)=O)(C3)NC(=O)[C@H](CC(C)C)NC(=O)[C@H](Cc3ccccc3)NC(=O)[C@H](CCCCNC(=O)CC[C@@H](C)[C@H]3CC[C@H]4[C@@H]5CC[C@@H]6C[C@H](O)CC[C@]6(C)[C@H]5CC[C@]34C)NC(=O)[C@H](C)NC(=O)[C@H](CC(=O)O)NC(=O)[C@H](CC(=O)O)NC1=O)NC(=O)[C@H](CC(C)(C)C)NC(=O)[C@H](CC(=O)O)NC2=O (stereo partly drawn) [I-1473, Ac-PL3-Asp-Npg-B5-Asp-Asp-Ala-[lithocholate]-Lys-Phe-Leu-PyrS2-3Thi-BztA-Gln-NH2] | 224 | – | – |
| CCSSCCOC(=O)CC[C@@H]1NC(=O)[C@H](CC(=O)O)NC(=O)C2(CCCC=CCCCOC(=O)N3CC[C@@](C(=O)N[C@@H](Cc4ccsc4)C(=O)N[C@@H](Cc4csc5ccccc45)C(=O)N[C@@H](CCC(N)=O)C(N)=O)(C3)NC(=O)[C@H](CC(C)C)NC(=O)[C@H](Cc3ccccc3)NC(=O)[C@H](C)NC(=O)[C@H](C)NC1=O)CCCC=CC[C@]1(CCCN1C(C)=O)C(=O)N[C@@H](CC(=O)O)C(=O)N[C@@H](CC(C)(C)C)C(=O)N2 (stereo partly drawn) [I-1966, Ac-PL3-Asp-Npg-B5-Asp-[EtSSEt]GluE-Ala-Ala-Phe-Leu-PyrS2-3Thi-BztA-Gln-NH2] | 566 | – | – |
| CC(=O)N1CCC[C@]12CC=CCCCC1(CCCC=CCCCOC(=O)N3CC[C@@](C(=O)N[C@@H](Cc4ccsc4)C(=O)N[C@@H](Cc4csc5ccccc45)C(=O)N[C@@H](CCC(N)=O)C(=O)N[C@@H](CCCCNC(=O)C45CC6(C)CC(C)(CC(C)(C6)C4)C5)C(N)=O)(C3)NC(=O)[C@H](CC(C)C)NC(=O)[C@H](Cc3ccccc3)NC(=O)[C@H](C)NC(=O)[C@H](C)NC(=O)[C@H](CC(=O)O)NC(=O)[C@H](CC(=O)O)NC1=O)NC(=O)[C@H](CC(C)(C)C)NC(=O)[C@H](CC(=O)O)NC2=O (stereo partly drawn) [I-1479, Ac-PL3-Asp-Npg-B5-Asp-Asp-Ala-Ala-Phe-Leu-PyrS2-3Thi-BztA-Gln-[Me3AdamantC]-Lys-NH2] | 173 | – | – |
| C[C@@H]1NC(=O)[C@H](C)NC(=O)[C@H](CC(=O)O)NC(=O)[C@H](CC(=O)O)NC(=O)C2(CCCC=CCCCOC(=O)N3CC[C@@](C(=O)N[C@@H](Cc4ccsc4)C(=O)N[C@@H](Cc4csc5ccccc45)C(=O)N[C@@H](Cc4c[nH]cn4)C(N)=O)(C3)NC(=O)[C@H](CCC(N)=O)NC(=O)[C@H](Cc3ccccc3)NC1=O)CCCC=CC[C@]1(CCCN1C(=O)CBr)C(=O)N[C@@H](CC(=O)O)C(=O)N[C@@H](CC(C)(C)C)C(=O)N2 (stereo partly drawn) [I-2285, BrAc-PL3-Asp-Npg-B5-Asp-Asp-Ala-Ala-Phe-Gln-PyrS2-3Thi-BztA-His-NH2] | – | – | 94 |
| CC(=O)N1CCC[C@]12CC=CCCCC1(CCCC=CCCCOC(=O)N3CC[C@@](C(=O)N[C@@H](Cc4ccccc4Cl)C(=O)N[C@@H](Cc4csc5ccccc45)C(=O)N[C@@H](CN4CCOCC4)C(N)=O)(C3)NC(=O)[C@H](CC(N)=O)NC(=O)[C@H](Cc3ccccc3)NC(=O)[C@H](C)NC(=O)[C@H](C)NC(=O)[C@H](CC(=O)O)NC(=O)[C@H](CC(=O)O)NC1=O)NC(=O)[C@H](CC(C)(C)C)NC(=O)[C@H](CC(=O)O)NC2=O (stereo partly drawn) [I-1133, Ac-PL3-Asp-Npg-B5-Asp-Asp-Ala-Ala-Phe-Asn-PyrS2-2C1F-BztA-MorphAla-NH2] | 5 | – | – |
| CC(=O)N1CCC[C@]12CC=CCCCC1(CCCC=CCCOC(=O)N3CC[C@@](C(=O)N[C@@H](Cc4ccccc4Cl)C(=O)N[C@@H](Cc4csc5ccccc45)C(=O)N[C@@H](C(N)=O)[C@H](C)O)(C3)NC(=O)[C@H](CC(N)=O)NC(=O)[C@H](Cc3ccccc3)NC(=O)[C@H](C)NC(=O)[C@H](C)NC(=O)[C@H](CC(=O)O)NC(=O)[C@H](CC(=O)O)NC1=O)NC(=O)[C@H](CC(C)(C)C)NC(=O)[C@H](CC(=O)O)NC2=O (stereo partly drawn) [I-1256, Ac-PL3-Asp-Npg-B5-Asp-Asp-Ala-Ala-Phe-Asn-PyrS1-2C1F-BztA-dThr-NH2] | 1470 | – | – |
| CC(=O)N1CCC[C@]12CC=CCCCC1(CCCC=CCCCOC(=O)N3CC[C@@](C(=O)N[C@@H](Cc4ccccc4Cl)C(=O)N[C@@H](Cc4csc5ccccc45)C(=O)N[C@H](CO)CC(C)C)(C3)NC(=O)[C@H](CC(C)C)NC(=O)[C@H](Cc3ccccc3)NC(=O)[C@H](C)NC(=O)[C@H](C)NC(=O)[C@H](CC(=O)O)NC(=O)[C@H](CC(=O)O)NC1=O)NC(=O)[C@H](CC(C)(C)C)NC(=O)[C@H](CC(=O)O)NC2=O (stereo partly drawn) [I-1251, Ac-PL3-Asp-Npg-B5-Asp-Asp-Ala-Ala-Phe-Leu-PyrS2-2C1F-BztA-Leuo1] | 1940 | – | – |
| CC(=O)N1CCC[C@]12CC=CCCCC1(CCCC=CCCCOC(=O)N3CC[C@@](C(=O)N[C@@H](Cc4ccsc4)C(=O)N[C@@H](Cc4csc5ccccc45)C(=O)N[C@@H](Cc4ccccc4)C(N)=O)(C3)NC(=O)[C@H](CC(N)=O)NC(=O)[C@H](Cc3ccccc3)NC(=O)[C@H](C)NC(=O)[C@H](C)NC(=O)[C@H]([C@@H](C)O)NC(=O)[C@H](CC(N)=O)NC1=O)NC(=O)[C@H](CC(C)(C)C)NC(=O)[C@H](CC(=O)O)NC2=O (stereo partly drawn) [I-1744, Ac-PL3-Asp-Npg-B5-Asn-Thr-Ala-Ala-Phe-Asn-PyrS2-3Thi-BztA-Phe-NH2] | 363 | – | – |
| CC(=O)N1CCC[C@]12CC=CCCCC1(CCCC=CCCCOC(=O)N3CC[C@@](C(=O)N[C@@H](Cc4ccccc4)C(=O)N[C@@H](Cc4csc5ccccc45)C(=O)N[C@@H](CCO)C(N)=O)(C3)NC(=O)[C@H](CC(C)C)NC(=O)[C@H](Cc3ccccc3)NC(=O)[C@H](C)NC(=O)[C@H](CCCCNC(C)C)NC(=O)[C@H](CCC(N)=O)NC(=O)[C@H](CC(=O)O)NC1=O)NC(=O)[C@H](CC(C)(C)C)NC(=O)[C@H](CC(N)=O)NC2=O (stereo partly drawn) [I-1646, Ac-PL3-Asn-Npg-B5-Asp-Gln-iPrLys-Ala-Phe-Leu-PyrS2-Phe-BztA-Hse-NH2] | 640 | – | – |
| CC(=O)N1CCC[C@]12CC=CCCCC1(CCCC=CCCCOC(=O)N3CC[C@@](C(=O)N[C@@H](Cc4ccsc4)C(=O)N[C@@H](Cc4csc5ccccc45)C(=O)N[C@@H](CCC(N)=O)C(N)=O)(C3)NC(=O)[C@H](CC(N)=O)NC(=O)[C@H](Cc3ccccc3)NC(=O)[C@H](C)NC(=O)[C@H](C)NC(=O)[C@H](CC(C)C)NC(=O)[C@H](CC(N)=O)NC1=O)NC(=O)[C@H](CC(C)(C)C)NC(=O)[C@H](CC(=O)O)NC2=O (stereo partly drawn) [I-1570, Ac-PL3-Asp-Npg-B5-Asn-Leu-Ala-Ala-Phe-Asn-PyrS2-3Thi-BztA-Gln-NH2] | 1340 | – | – |
| CC(=O)N1CCC[C@]12CCCCCCC1(CCCCCCCCOC(=O)N3CC[C@@](C(=O)N[C@@H](Cc4ccccc4Cl)C(=O)N[C@@H](Cc4csc5ccccc45)C(=O)N[C@@H](CCC(N)=O)C(N)=O)(C3)NC(=O)[C@H]([C@@H](C)O)NC(=O)[C@H](Cc3ccccc3)NC(=O)[C@H](C)NC(=O)[C@H](C)NC(=O)[C@H](CN(CC(=O)O)CC(F)(F)F)NC(=O)[C@H](CC(=O)O)NC1=O)NC(=O)[C@H](CC(C)(C)C)NC(=O)[C@H](CC(=O)O)NC2=O (stereo partly drawn) [I-1606, Ac-PL3-Asp-Npg-B5-Asp-TfeGA-Ala-Ala-Phe-Thr-PyrS2-2C1F-BztA-Gln-NH2] | 107 | – | – |
